Reference: patent US20230000064A1, “OBSESSIVE-COMPULSIVE DISORDER ANIMAL MODEL AND PRODUCTION METHOD THEREOF” (KOREA UNIVERSITY RESEARCH AND BUSINESS FOUNDATION, priority 2019, published 2023)
Entries after “also recorded” stand apart in the source; their conditions may differ.

Key:
Format in all cases: in vivo
[1] = tested on: BLA-DMS neural circuit; experiment: Hoarding test (two connected cages) in mice with activated BLA-DMS circuit; conditions: day 13 evening to day 14 morning, no administration; vs saline-administered group; FIGS. 12-14
Description: A tool was manufactured by connecting two cages, with a passage in the middle thereof. The cages each have a dimension of width 25 cm×length 20 cm×height 12 cm (Jeung Do PNP). For the passage, a PVC cylinder with a dimension of diameter 5 cm and length 19 cm was used. A hole with a diameter of 5 cm was drilled 1 cm above the bottom of each cage, and a sill was installed on the PVC so that the length of the passage was 9.5 cm when a PVC cylinder was inserted into the holes. Mice were placed one per cage. In order for the mouse to recognize one cage as a home cage, beddings were placed on only one cage and the other cage was left in the default state, and the passageway to the opposite side of the home cage was blocked for one day. Then the next evening, the food in the home cage was removed, foods and toys were placed on the other cage, and the blocked passage was opened. At this time, water was placed in the home cage. Differences between the groups were compared in how many food pellets and toys were brought to the home cage on the morning of the last day of the experiment. Quantification was made of the brought weight for food and the brought number for toys. […]

[2] = tested on: BLA-DMS neural circuit; experiment: Hole board test in mice with chemogenetically (hM3Dq/CNO) activated BLA-DMS circuit
Experimental: A solution of clozapine N-oxide (CNO; Tocris, Bristol, United Kingdom) in saline was intraperitoneally injected to mice. Taking into account the time it takes for the drug to act, the experiment was started after about 30 minutes. The drug was injected at a dose of 1 mg/kg at the same time every day.
As a control for CNO, saline was used. Saline was also intraperitoneally injected at the same volume and the experiments were conducted in the same condition as for the CNO group.
A square acrylic plate with 9 holes (3 cm in diameter) was made to be 30 cm wide and 30 cm long. A home base was constructed with a material different from the acryl plate. Based on the home base, water was placed on the right end of the acrylic plate, and 10% sucrose was placed on the other side. Afterward, a mouse was placed in the home base and monitored for 1 hour under a video camera. Remaining amounts of sucrose and water were recorded after completion of the test.
In the present disclosure, mice were divided into two groups: saline-administered and CNO-administered groups and subjected to the test at the same time every day for 18 days. After a four-day learning period, the fourth day was used as the base. During this period, the mice located the water and 10% sucrose on the hole board. Saline and CNO were administered to each group for a total of 12 days from the 5th day to the 16th day. On the 17th day, it was observed whether the OCD phenomenon was maintained even in the absence of administration of saline and CNO. Finally, on the 18th day, the mice were measured for cognitive flexibility after switching the positions of water and 10% sucrose. The video between the base and the 18th day (base to day 14) was analyzed. The analysis items included checking behavior (repetitive checking), repetitive nose poking (repetitively inserting the nose into the hole), excessive grooming (excessive washing—hair trimming), and flexibility (cognitive flexibility).
As an analysis method, the video was analyzed with the naked eye through the blind test. Through the blind test, the objectivity of the experiment was secured by preventing the experimenter from knowing about the saline-administered group and the CNO-administered group. A measurement was made of: the frequency of going to water and sucrose for the checking behavior (repetitive checking); the number of actions of inserting the nose into each hole for repetitive nose poking (repeatedly inserting the nose into the hole); the total length of grooming (duration) and the total number of times (frequency) of the start and end of grooming for excessive grooming (excessive washing—hair trimming); and the number of times to go to water and sucrose where the positions of the 18th day (day 14) were reversed, for the flexibility (cognitive flexibility).
AAV-retro Cre virus, which can make a retrograde infection, was injected to the DMS while AAV-DIO-hM3Dq, which specifically expresses Cre, was injected into the BLA. That is, advantage was taken of the principle that when the retrograde virus from the DMS expresses Cre in the neuron cell body (soma) of the BLA, the AAV-DIO-hM3Dq virus is induced to express hM3Dq thereat only in the presence of Cre. hM3Dq can activate neurons in cooperation with the membrane protein GPCR (G-protein-coupled receptors) upon stimulation with the drug CNO (clozapine n-oxide), whereby the specific activation of the BLA-DMS neural circuit can be achieved. After injecting different viruses into these two areas, it takes more than 4 weeks for the viruses to show their activities.
After 4 weeks, the learning process was performed for the first 4 days on the hole board without injection of CNO (clozapine n-oxide). During this process, the mice identify and remember the location of the water and 10% sucrose. The BLA-DMS circuit was continuously activated by injecting CNO (1 mg/kg) at the same time every day for 12 days, using the behavioral values of the 4th day as a reference. […]

[3] = tested on: BLA-DMS neural circuit; experiment: Observation of hairs around the mouth after the tests; conditions: 20 days after the last test day; vs saline-administered mice; FIG. 15
Description: Additionally, after 20 days from the last day, it was observed that the hairs around the mouth of the Clozapine n-oxide (CNO)-administered mice fell out, compared to the saline-administered mice, indicating a phenotype caused by excessive grooming (see FIG. 15).

[4] = CNO 1 mg/kg i.p. daily vs saline, repeated 1-way ANOVA, FIG. 8

SMILES: C[N+]1([O-])CCN(C2=Nc3cc(Cl)ccc3Nc3ccccc32)CC1 [CNO, clozapine N-oxide]
- hoarding of food pellets brought to home cage [1]: significantly increased
- hoarding of toys brought to home cage [1]: significantly increased
- checking frequency of heading toward 10% sucrose ([2]; CNO 1 mg/kg i.p. daily for 12 days vs saline control, repeated 1-way ANOVA, FIG. 6): significantly increased
- frequency of heading toward water (checking behavior) ([2]; CNO 1 mg/kg i.p. daily for 12 days vs saline-administered group, FIG. 6): no difference
- repetitive nose poking frequency ([2]; CNO 1 mg/kg i.p. daily vs saline, repeated 1-way ANOVA, FIG. 7): greatly increased
- grooming frequency [2, 4]: significantly increased
- grooming time (duration) [2, 4]: significantly increased
- amount of 10% sucrose drank ([2]; CNO vs saline-administered group, FIG. 9): no difference
- obsessive-compulsive disorder (checking and nose poking) on day 13 without administration ([2]; day 13, saline and CNO not administered): maintained
- cognitive flexibility (times going to water and sucrose after positions swapped) ([2]; day 14 (18th day), vs saline-administered group, Student t-test, FIG. 10): significantly lower
- hairs around the mouth (phenotype caused by excessive grooming) [3]: fell out; also recorded: disappear
